Reference: ChEMBL document CHEMBL1914414, “Selective cholinesterase inhibition by lanostane triterpenes from fruiting bodies of Ganoderma lucidum” (Bioorg Med Chem Lett, 2011)

What was measured:
[1] = target: Acetylcholinesterase (Homo sapiens, UniProt P22303); assay: Inhibition of AChE assessed as hydrolysis of acetylcholine preincubated for 15 mins measured after 15 mins by colorimetric Ellman assay
[2] = target: Cholinesterase (Homo sapiens, UniProt P06276); assay: Inhibition of BChE assessed as hydrolysis of butrylcholine preincubated for 15 mins measured after 15 mins by colorimetric Ellman assay
Sequence of Cholinesterase (P06276 whole entry): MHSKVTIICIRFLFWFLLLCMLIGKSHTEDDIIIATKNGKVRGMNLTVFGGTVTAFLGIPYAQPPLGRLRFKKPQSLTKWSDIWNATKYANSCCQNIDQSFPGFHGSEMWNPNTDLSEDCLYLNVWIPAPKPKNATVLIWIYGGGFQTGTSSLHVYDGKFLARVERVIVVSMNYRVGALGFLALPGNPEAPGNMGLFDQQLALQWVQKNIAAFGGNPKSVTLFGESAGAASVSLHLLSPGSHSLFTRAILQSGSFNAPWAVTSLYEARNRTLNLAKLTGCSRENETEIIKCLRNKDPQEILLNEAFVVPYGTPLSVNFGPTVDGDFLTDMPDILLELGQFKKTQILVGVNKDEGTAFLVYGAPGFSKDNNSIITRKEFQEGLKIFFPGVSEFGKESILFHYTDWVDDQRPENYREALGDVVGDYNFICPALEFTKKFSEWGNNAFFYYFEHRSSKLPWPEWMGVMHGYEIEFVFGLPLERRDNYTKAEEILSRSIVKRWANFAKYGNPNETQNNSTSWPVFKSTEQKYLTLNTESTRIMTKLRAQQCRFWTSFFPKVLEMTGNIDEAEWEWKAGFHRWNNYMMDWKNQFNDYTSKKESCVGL

Sequence of Acetylcholinesterase (P22303 whole entry): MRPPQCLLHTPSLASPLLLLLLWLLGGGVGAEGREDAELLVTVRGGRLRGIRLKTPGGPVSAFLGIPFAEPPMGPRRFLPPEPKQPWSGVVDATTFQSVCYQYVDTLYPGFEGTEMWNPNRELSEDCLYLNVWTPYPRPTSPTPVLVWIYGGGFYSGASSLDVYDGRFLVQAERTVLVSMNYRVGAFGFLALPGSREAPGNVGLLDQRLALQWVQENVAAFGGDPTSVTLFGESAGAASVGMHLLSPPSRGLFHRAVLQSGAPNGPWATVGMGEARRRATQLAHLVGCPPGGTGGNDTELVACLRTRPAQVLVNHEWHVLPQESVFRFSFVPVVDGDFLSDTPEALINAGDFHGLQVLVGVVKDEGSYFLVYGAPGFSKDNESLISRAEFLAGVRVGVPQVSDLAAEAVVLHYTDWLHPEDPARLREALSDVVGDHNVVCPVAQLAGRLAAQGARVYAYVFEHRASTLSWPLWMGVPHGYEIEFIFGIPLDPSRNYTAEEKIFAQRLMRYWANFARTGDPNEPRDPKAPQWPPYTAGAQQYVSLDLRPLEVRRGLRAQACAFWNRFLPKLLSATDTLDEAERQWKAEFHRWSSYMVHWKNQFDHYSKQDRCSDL

Compound | IC50 [1] | IC50 [2]
CC(CC(=O)C[C@@H](C)[C@H]1C[C@H](O)[C@@]2(C)C3=C(C(=O)C[C@]12C)[C@@]1(C)CCC(=O)C(C)(C)[C@@H]1CC3)C(=O)O (some centres undefined) [GANOLUCIDIC ACID A] | 23 µM | > 200 µM
CCCCOC(=O)CC[C@@H](C)[C@H]1CC[C@@]2(C)C3=C(C(=O)C[C@]12C)[C@@]1(C)CCC(=O)C(C)(C)[C@@H]1C[C@@H]3O | 12.3 µM | > 200 µM
C[C@H](CCC(=O)O)[C@H]1CC(=O)[C@@]2(C)C3=C(C(=O)C[C@]12C)[C@@]1(C)CC[C@H](O)C(C)(C)[C@@H]1C[C@@H]3O [LUCIDENIC ACID N] | 25.9 µM | 188 µM
CCCCOC(=O)CC[C@@H](C)[C@H]1CC[C@@]2(C)C3=C(C(=O)C[C@]12C)[C@@]1(C)CC[C@H](O)C(C)(C)[C@@H]1C[C@@H]3O | 11.6 µM | > 200 µM
C/C(=C\CC[C@@H](C)[C@H]1CC[C@@]2(C)C3=CC[C@H]4C(C)(C)[C@@H](O)CC[C@]4(C)C3=CC[C@]12C)CO [GANODEROL B] | 26.8 µM | > 200 µM
C/C(=C\CC[C@@H](C)[C@H]1CC[C@@]2(C)C3=CC[C@H]4C(C)(C)[C@@H](O)CC[C@]4(C)C3=CC[C@]12C)C(=O)O [GANODERIC ACID Y] | 21.1 µM | > 200 µM
C[C@H](CC[C@@H](O)C(C)(C)O)[C@H]1CC[C@@]2(C)C3=CC[C@H]4C(C)(C)C(=O)CC[C@]4(C)C3=CC[C@]12C [GANODERMANONDIOL] | 25.1 µM | > 200 µM
COC(=O)C(C)CC(=O)C[C@@H](C)[C@H]1C[C@H](O)[C@@]2(C)C3=C(C(=O)C[C@]12C)[C@@]1(C)CCC(=O)C(C)(C)[C@@H]1C[C@@H]3O (some centres undefined) [METHYL GANODERATE A] | 30.3 µM | > 200 µM
COC(=O)[C@H](C)CC(=O)C[C@@H](C)[C@H]1C[C@@H]2OC(C)(C)O[C@H]3C[C@H]4C(C)(C)C(=O)CC[C@]4(C)C4=C3[C@@]2(C)[C@]1(C)CC4=O [METHYL GANODERATE A ACETONIDE] | 18.4 µM | > 200 µM
C[C@H](CC(=O)C[C@@H](C)[C@H]1CC(=O)[C@@]2(C)C3=C(C(=O)C[C@]12C)[C@@]1(C)CCC(=O)C(C)(C)[C@@H]1CC3=O)C(=O)O [GANODERIC ACID E] | 18.4 µM | > 200 µM
COC(=O)CC[C@@H](C)[C@H]1CC(=O)[C@@]2(C)C3=C(C(=O)[C@@H](OC(C)=O)[C@]12C)[C@@]1(C)CC[C@H](O)C(C)(C)[C@@H]1CC3=O [METHYL LUCIDENATE E2] | 17.1 µM | > 200 µM
CCCCOC(=O)C(C)CC(=O)C[C@@H](C)[C@H]1CC(=O)[C@@]2(C)C3=C(C(=O)[C@@H](OC(C)=O)[C@]12C)[C@@]1(C)CC[C@H](O)C(C)(C)[C@@H]1CC3=O (some centres undefined) | 9.4 µM | > 200 µM
C[C@H](CCC=C(CO)CO)[C@H]1CC[C@@]2(C)C3=CC[C@H]4C(C)(C)C(=O)CC[C@]4(C)C3=CC[C@]12C [GANODERIOL F] | 21.8 µM | > 200 µM
C[C@H](CCC(=O)O)[C@H]1CC(=O)[C@@]2(C)C3=C(C(=O)C[C@]12C)[C@@]1(C)CCC(=O)C(C)(C)[C@@H]1C[C@@H]3O [LUCIDENIC ACID A] | 24 µM | > 200 µM
CC(CC(=O)C[C@@H](C)[C@H]1CC(=O)[C@@]2(C)C3=C(C(=O)C[C@]12C)[C@@]1(C)CC[C@H](O)C(C)(C)[C@@H]1C[C@@H]3O)C(=O)O (some centres undefined) [GANODERIC ACID B] | 22.6 µM | > 200 µM
C/C(=C\CC[C@@H](C)[C@H]1CC[C@@]2(C)C3=C(CC[C@]12C)[C@@]1(C)CC[C@H](O)C(C)(C)[C@@H]1CC3=O)CO [LUCIDADIOL] | 31 µM | 156 µM
C[C@H](CC[C@H](O)[C@](C)(O)CO)[C@H]1CC[C@@]2(C)C3=CC[C@H]4C(C)(C)C(=O)CC[C@]4(C)C3=CC[C@]12C [GANODERMANONTRIOL] | 22.3 µM | > 200 µM
